This assay deals with glioma model mice. As to the kind of experiment: Therapy of glioma-bearing mice, survival. The settings on record: doxorubicin 1 mg/Kg at 9d, 12d and 15d after tumor cell inoculation.

Procedure: An animal therapy experiment was conducted by the inventor to glioma-bearing mice (same mice as in Example 4). In the experiment, glioma model mice (same mice as in Example 4) were divided into two groups, 5 mice for each group. And then glioma model mice were treated with doxorubicin (1 mg/Kg) respectively after tumor cell inoculation for 9d, 12d and 15d.

Turning to `COc1cccc2c1C(=O)c1c(O)c3c(c(O)c1C2=O)C[C@@](O)(C(=O)CO)C[C@@H]3O[C@H]1C[C@H](N)[C@H](O)[C@H](C)O1` [Free-Dox, doxorubicin], the “Mean survival time / survival period” value was 15 days.

For the origin of these results see patent US11707527B2, “Nanoscale drug carrier capable of passing through blood-brain barrier” (KUNSHAN XINYUNDA BIOTECH CO., LTD., priority 2017, dated 2023).
